Assays:
[1] = Stability in water at about pH 8; conditions: water at about pH 8, 24 hours, ambient temperature
Protocol: Quercetin-3′-O-phosphate is dissolved in water at about pH 8.
Fisetin-3′-O-phosphate is dissolved in water at about pH 8.
Quercetin-3′-O-methylphosphonate (Compound 2) is dissolved in water at about pH 8.

[2] = tested on: BB19 cells, human BCECs (brain capillary endothelial cells); experiment: Tacrolimus uptake assay; format: cell-based; conditions: Endothelial cell, 1 h, 0.1 μM test compound, 1 hour incubation, 3H-tacrolimus 34 nM, read-out: cell associated ^3H-tacrolimus uptake, % of control
Protocol: (§1) BB19 cells, human BCECs (brain capillary endothelial cells) immortalized with the E6E7 genes of human papilloma virus, were kindly provided from Jacques G. Prudhomme, Department of Biology, University of California, Riverside, U.S.A. The cells were cultured as monolayer culture in Amniomax™-C100 basal medium (catalog number 17001-157) with Amniomax™-C100 supplement (catalog number 12556-049) (Invitrogen, Basel, CH).
(§2) Cells were seeded onto culture surfaces precoated with 10 μg/cm^2 rat tail collagen type I (BD Bioscience, Allschwil, CH) at a density of approximately 50′000 cells/cm^2 and were cultured in an incubator at 37° C. with 5% CO2, 95% fresh air and saturated humidity. For uptake assays, cells were seeded on precoated 96-well plates. Assays were performed at confluency, after 6 days in culture.
(§3) BB19 cells were seeded 50′000 cells/cm^2 on 96-well plates (Falcon) and incubated under condition described above for 6 days. Before starting the assay, cells were washed 2 times with pre-warmed Dulbecco's MEM with Glutamax-I (catalog number 61965) (Invitrogen AG, Basel, CH), supplemented with 1% non essential amino acids, 1% sodium pyruvate, 50 μg/ml gentamycin (Invitrogen AG) (DMEM). Cells were then incubated for 15 min at 37° C. and 120 rpm in DMEM with or without the specified concentrations of test compounds under investigation. After this pre-incubation, cells were incubated in DMEM containing [propyl-3H]-dihydro-FK506 (3H-tacrolimus, 1 μCi/ml, 34 nM) and with or without the specified concentrations of test compounds for 1 hour at 37° C. and 120 rpm. During this 1-hour incubation period, influx and efflux of the substrate, ^3H-tacrolimus, occur. After the 1-hour incubation period, assay was terminated by placing the assay plate on ice and washing the cells twice with ice-cold DMEM. Determination of cell associated ^3H-tacrolimus was performed by addition of Insta Gel and scintillation liquid to trypsinized cells followed by analysis on a scintillation counter (Packard TriCarb2000, Can berra Packard S.A.). The results are expressed as: % of control=100×[^3H-tacrolimus conc. with test compound]/[^3H-tacrolimus conc. with vehicle]

[3] = target: T1, AdrenergicA2A (Homo sapiens, UniProt P08913); experiment: AdrenergicA2A GTPγS functional assay; format: biochemical; conditions: 10 μM; compound may be / can be tested
T1 sequence (P08913 1-465): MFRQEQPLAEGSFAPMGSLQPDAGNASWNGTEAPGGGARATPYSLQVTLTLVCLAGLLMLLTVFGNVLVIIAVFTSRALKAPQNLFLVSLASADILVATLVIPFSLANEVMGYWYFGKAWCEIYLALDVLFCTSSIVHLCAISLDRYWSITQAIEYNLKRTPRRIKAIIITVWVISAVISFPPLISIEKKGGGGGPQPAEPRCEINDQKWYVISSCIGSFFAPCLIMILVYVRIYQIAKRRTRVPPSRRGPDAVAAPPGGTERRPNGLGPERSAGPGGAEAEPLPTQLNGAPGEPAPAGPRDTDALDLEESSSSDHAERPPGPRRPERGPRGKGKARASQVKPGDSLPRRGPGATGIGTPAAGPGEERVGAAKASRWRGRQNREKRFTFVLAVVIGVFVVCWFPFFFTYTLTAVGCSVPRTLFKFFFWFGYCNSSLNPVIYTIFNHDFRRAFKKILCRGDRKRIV
Protocol: The compound is additionally tested in AdenosineA1, AdrenergicA2A, DopamineD25, Histamine H1-, and μ-Opiate GTPγS functional assays using a concentration of 10 μM.
The compound may be additionally tested in AdenosineA1, AdrenergicA2A, DopamineD25, Histamine H1-, and μ-Opiate GTPγS functional assays using a concentration of 10 μM.
The compound can be additionally tested in AdenosineA1, AdrenergicA2A, DopamineD25, Histamine H1-, and μ-Opiate GTPγS functional assays using a concentration of 10 μM.

[4] = tested on: BB19 cells, human BCECs (brain capillary endothelial cells); experiment: Cyclosporin uptake assay; format: cell-based; conditions: 0.1 μM test compound; 1 hour incubation; 0.1 µM
Protocol: as §1, §2, §3
The cyclosporin uptake assay was performed similarly as described above for tacrolimus uptake assay except that ^3H-cyclosporin was used in place of ^3H-tacrolimus.

[5] = tested on: ZDF rats; experiment: Oral glucose tolerance test (OGTT) in ZDF rats after the 4 week study; format: in vivo; conditions: glucose 2 g/Kg PO; compound 2 100 mg/kg, compound 3 50 mg/kg i.p.
Protocol: Following the 4 week study described in Example 26 above, the animals were fasted for 12 hours and on day-29, pre-drug blood samples are collected and glucose level and insulin level are measured. The animals are treated intraperitoneally (i.p.) with the following compounds:
Thirty (30) minutes after the treatment, pre-glucose blood samples are collected and the animals are then dosed with glucose (2 g/Kg, PO). Tail vein blood samples are collected at 30, 60, 90 and 120 minutes. Glucose levela and insulin leveal are measured. FIG. 31 show the plasma glucose level measured during OGTT. […] FIG. 32 show the plasma insulin level measured during OGTT. Phosphonated pyrone analogs raise insulin output in response to OGTT.

[6] = tested on: ZDF rats; experiment: Pancreas histopathology, insulin staining and TUNEL in ZDF rats; format: in vivo
From the text: Pancreas samples from Example 26 are stored in 10% NBF and used in this study. All tissue samples were processed through graded alcohols, cleared in xylene and infiltrated and embedded into paraffin. For the pancreas four 4 micron sections were cut, one was stained with Hematoxylin and Eosin for histopathology, two were immunohistochemically stained with an antibody to insulin to determine beta cell mass and one was stained for apoptosis with the tunel technique.
The insulin staining procedure was performed as follows: Endogenous peroxidase activity was inhibited by incubation in 3% hydrogen peroxide. Non-specific staining was blocked with DAKO Protein Block Serum-Free (Dako, Carpinteria, Calif.). Insulin positive cells were immunohistochemically stained with a polyclonal guinea pig anti-swine insulin antibody at room temperature for 30 minutes (Dako, Carpinteria, Calif.). After incubation with primary antibody, the tissue sections were sequentially incubated with Envision+ HRP Rabbit (Dako, Carpinteria, Calif.). Staining was developed with Liquid DAB+ (Dako, Carpinteria, Calif.) and counterstained with hematoxylin.
Pancreas samples were stained for apoptosis as follows: 4 micron sections were cut and stained for TUNEL utilizing the following kit In Situ Cell Death Detection Kit, AP (Roche Applied Science, catalog 11 684 809 910).

[7] = tested on: male ZDF rats; experiment: 4 week study in ZDF rats (compound 2, compound 3); format: in vivo
From the text: Seven week old male ZDF rats are used for the study.
Experimental Design: This study is a 4 week study Using 32 7-week old male ZDF rats, divided into 4 treatment arms (8 rats/arm).

[8] = following four weeks of daily treatment

O=c1c(O)c(-c2ccc(O)c(OCP(=O)(O)O)c2)oc2cc(O)cc(O)c12 [Compound 2, Quercetin-3′-O-methylphosphonic acid]
degradation seen by NMR [1]: no degradation | activity at 0.1 µM [2]: 51% | inhibition in the AdrenergicA2A assay [3]: marked negative inhibition | cell associated ^3H-cyclosporin uptake, % of control [4]: 54 % of control | plasma glucose level during OGTT [5]: protect against hyperglycemia | islet cell apoptosis ([6]; TUNEL, following four weeks of daily treatment): decreases in islet cell apoptosis | decrease in islet vacuolar degeneration (inhibition) [6, 8]: 43% | decrease in pancreatic inflammation (inhibition) [6, 8]: 60% | ratio of insulin positive islet cells to pancreas cells ([6]; insulin immunohistochemistry): significantly increased | plasma insulin levels ([7]; 4 weeks daily i.p., compared to vehicle treated animals): require lower insulin levels to maintain nomal glucose levels | plasma glucose levels ([7]; 4 weeks daily i.p., compound 2 100 mg/kg, compound 3 100 mg/kg day 4 and 5, 50 mg/kg day 6-28, rosiglitazone 6 mg/kg): maintains steady glucose levels | glycated hemoglobin levels (% HbA1c) at termination ([7]; compared to vehicle treated animals): lower glycated hemoglobin levels | triglycerides ([7]; day 14 and day 21, over vehicle controls): marked decreases in triglycerides
